Patent EP0880540B1, “17-BETA-CYCLOPROPYL(AMINO/OXY) 4-AZA STEROIDS AS ACTIVE INHIBITORS OF TESTOSTERONE 5-ALPHA-REDUCTASE AND C17-20-LYASE” (Aventis Pharmaceuticals Inc., priority 1996, dated 1997)

Legend:
[1] = target: T1, cynomolgus monkey prostatic 5α-reductase (Macaca fascicularis, UniProt Q28892); assay: In vitro 5α-reductase assay, prostate microsomes; type: biochemical; conditions: mean of duplicates
T1 construct: microsomal preparations of the 5α-reductase enzyme from laboratory animal prostate tissue; from tissue; host or cells: cynomolgus monkey prostate, microsomes
T1 sequence (Q28892 1-254): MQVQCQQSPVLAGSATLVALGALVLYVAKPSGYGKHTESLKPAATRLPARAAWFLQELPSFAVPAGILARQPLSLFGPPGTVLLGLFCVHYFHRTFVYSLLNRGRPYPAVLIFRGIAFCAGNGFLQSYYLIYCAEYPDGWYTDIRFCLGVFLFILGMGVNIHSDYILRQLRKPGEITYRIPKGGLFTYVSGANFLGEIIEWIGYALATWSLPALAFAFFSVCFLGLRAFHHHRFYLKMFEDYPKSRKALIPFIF
Protocol: In vitro 5α-reductase assays: The activity of the present compounds as inhibitors of steroid 5α-reductase was determined using microsomal preparations of the 5α-reductase enzyme from laboratory animal prostate tissue. Specifically, microsomes were isolated from cynomolgus monkey prostate tissue. Protein concentration of the microsomal preparations was determined prior to use of the samples. Individual assays of cynomolgus monkey prostatic 5α-reductase activity contained 0.1 M potassium phosphate-sodium citrate buffer, pH 5.6 1.0% (w/v) bovine serum albumin, […] sodium EDTA, 4 µg of microsomal protein, 1.0 mM NADPH, 5.0 mM glucose-6-phosphate, 1 IU/mL glucose-6-phosphate dehydrogenase, [1,2-^3H]-testosterone (0.15 µCi) plus unlabeled testosterone to yield 0.015 µM (Km = 0.015 µM to 0.091 µM in multiple determinations), and test compound which was dissolved in DMSO then diluted in 0.1 M potassium phosphate-sodium citrate buffer, pH 5.6, to yield a final assay concentration of 0.1% (v/v) DMSO. The same buffer and DMSO without test compound were used in control assays. Background radioactivity was determined from assays containing all components except enzyme. Assays were performed in duplicate. Microsomes, 0.1 M potassium phosphate-sodium citrate buffer, pH 5.6, and test compound were preincubated at 37°C. Aliquots of 180 µL were removed after 0 or 40 minutes of preincubation and added to […] of testosterone substrate suspended in 0.1 M potassium phosphate-sodium citrate buffer, pH 5.6, containing 10% (v/v) DMSO. Remaining enzyme activity was assayed for 10 minutes at 37°C in a Dubnoff shaker incubator.
The reactions were terminated by the addition of 5 mL CHCl3:methanol (2:1) and 0.9 mL water. Carrier steroids were added in the form of 2.5 µg each of testosterone, dihydrotestosterone, and 3,17-androstanediol. Steroid metabolites were then extracted according to the procedure of Moore and Wilson (Methods in Enzymol., O'Malley, B.W. and Hardman, J.G. eds., 36, 1975, pp. 466-474), the organic phase containing the steroids was evaporated using nitrogen gas, the residues were dissolved in 3% (v/v) isopropanol in hexane. The steroids were then separated by normal phase HPLC on a LiCrosorb® DIOL derivatized silica gel column (10 µm; 4 x 250 mm) with a 3% to 7.5% isopropanol in hexane gradient, followed by isocratic conditions of […] isopropanol in hexane. Radioactivity in the steroid peaks was measured using a Packard Radiomatic model HS Flo-One detector. When the compound were tested using the above procedures with cynomolgus monkey 5α-reductase, the following results were obtained: Table 2: […]

[2] = target: T2, cynomolgus monkey C17,20 lyase (Macaca fascicularis, UniProt Q2XVA1); assay: In vitro C17,20 lyase assay, testicular microsomes; type: biochemical; conditions: mean of duplicates
T2 construct: microsomal preparations of the enzyme from testicular tissue; from tissue; host or cells: cynomolgus monkey testes, microsomes
T2 sequence (Q2XVA1 1-508): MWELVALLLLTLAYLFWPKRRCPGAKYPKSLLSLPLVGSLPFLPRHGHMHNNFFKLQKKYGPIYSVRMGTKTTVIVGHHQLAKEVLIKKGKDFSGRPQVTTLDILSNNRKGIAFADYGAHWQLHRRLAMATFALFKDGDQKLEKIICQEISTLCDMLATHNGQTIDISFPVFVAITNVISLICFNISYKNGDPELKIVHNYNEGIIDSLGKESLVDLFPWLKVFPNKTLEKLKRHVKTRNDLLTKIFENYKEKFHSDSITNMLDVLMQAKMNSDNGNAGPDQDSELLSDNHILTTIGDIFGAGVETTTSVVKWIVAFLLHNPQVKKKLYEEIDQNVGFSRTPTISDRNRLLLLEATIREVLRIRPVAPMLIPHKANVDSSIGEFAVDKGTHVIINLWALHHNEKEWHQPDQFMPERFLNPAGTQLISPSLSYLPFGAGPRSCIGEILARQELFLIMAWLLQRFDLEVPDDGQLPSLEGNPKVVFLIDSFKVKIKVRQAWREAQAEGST
Protocol: In vitro C17,20 lyase assays: Compounds were tested for inhibition of cynomolgus monkey C17,20 lyase in vitro using microsomal preparations of the enzyme from testicular tissue. Testes were removed from anesthetized animals and flash frozen in liquid nitrogen. Microsomes were isolated as described in Schatzman et al., Anal. Biochem. 175, 219-226 (1988). The compound to be tested was dissolved in dimethyl sulfoxide and diluted in 0.05 M potassium phosphate buffer, pH 7.4, to give the desired concentrations of test compound, in an amount which contributed 0.1% v/v DMSO to the total assay volume. Assays contained 0.05 M potassium phosphate buffer, pH 7.4, an NADPH regenerating system (1 mM NADPH, 5 mM glucose-6-phosphate, 1 IU/mL glucose-6-phosphate dehydrogenase), test compound, substrate and microsomal protein in a total volume of 0.2 mL. Control assays contained all components, including dimethyl sulfoxide, but not test ccmpound. All assays were performed in duplicate. The test compound was incubated with 20 to 62 µg/mL microsomal protein, buffer, and the NADPH regenerating system described above at 34°C for 0 or 40 minutes. Aliquots of 180 µL were then removed and assayed for enzyme activity by addition to 7-[^3H]-17α-hydroxypregnenolone (11.2 mCi/mmole; 0.2 µCi per assay) plus unlabeled 17α-hydroxypregnenolone dissolved in DMSO, contributing 2.5% v/v to the final assay mix, and phosphate buffer to give a total substrate concentration of 0.05 µM (=Km) per assay and subsequent incubation at 34°C for 6 minutes. Each assay was terminated by addition of 5 mL of chloroform:methanol (2:1). Carrier steroids representing substrates and produces (17α-hydroxypregnenolone, dehydroepiandrosterone, and androst-5-ene-3β,17β-diol) and 0.8 mL of distilled, deionized water were also added at this time. The steroids were extracted by the method of Moore and Wilson (Methods in Enzymol., eds. O. Malley, B.W. and Hardman, J.G. 36, 1975, pp. 466-474). The organic phase containing the steroids was evaporated using nitrogen gas, the residues dissolved in 18% tetrahydrofuran (v/v) in hexane, and the steroids were separated by HPLC on a Si60 (5 µm) column (250 x 4 mm) using a gradient of 18-22% tetrahydrofuran (v/v) in hexane. Radioactivity in the steroid peaks was measured using a Radiomatic® Model ES or Model A515 Flo-One® detector.
The enzyme activity for each assay was calculated from the percent conversion of substrate to products, and the results were expressed as percent inhibition of control. The following results were obtained, wherein the values indicated are the mean of duplicate determinations: Table 1: […]

`C[C@]12CC[C@H]3[C@@H](CC=C4NC(=O)CC[C@@]43C)[C@@H]1CC[C@@H]2OC1CC1` (stereo in doubt) [MDL 103,496, 17β-Cyclopropyloxy-4-aza-androst-5-en-3-one] showed an inhibition at 0.1 µM ([1]; preincubation 0 min) of 24.6%, an inhibition at 0.1 µM ([1]; preincubation 40 min) of 29.5% and an inhibition at 1 µM ([1]; preincubation 0 min) of 86.2%. It also gave an inhibition at 1 µM ([1]; preincubation 40 min) of 86.7%, an inhibition at 10 µM ([1]; preincubation 0 min) of 99.6% and an inhibition at 10 µM ([1]; preincubation 40 min) of 99.4%. For the same molecule, the inhibition at 0.1 µM ([2]; preincubation 0 min) was 5%, the inhibition at 0.1 µM ([2]; preincubation 40 min) was 26.6% and the inhibition at 1 µM ([2]; preincubation 0 min) was 29%. It also gave an inhibition at 1 µM ([2]; preincubation 40 min) of 62.2%, an inhibition at 10 µM ([2]; preincubation 0 min) of 39.2% and an inhibition at 10 µM ([2]; preincubation 40 min) of 87.7%.
